Data from patent US10308644B2, “Heterocyclic compounds as immunomodulators” (Incyte Corporation, priority 2016, dated 2019).

Target: PD-1/PD-L1 (Homo sapiens (Human), UniProt Q9NZQ7)
Assay: PD-1/PD-L1 Homogeneous Time-Resolved Fluorescence (HTRF) Binding Assay
Conditions: recombinant human PD-1 (3 nM) and PD-L1 (10 nM), 25° C., PBS pH 7.4
Procedure, shortened: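 Fc-tagged human PD-1 (25-167, 3 nM) and His-tagged PD-L1 (19-238, 10 nM) preincubated with inhibitor 40 min in PBS pH 7.4, 0.05% Tween-20, 0.1% BSA, 1% DMSO, 25 °C. Binding detected by HTRF (Eu anti-IgG/APC anti-His, 665/620 nm) after 60 min; IC50 from percent control activity.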

Chain of PD-1/PD-L1 (Q9NZQ7 19-238): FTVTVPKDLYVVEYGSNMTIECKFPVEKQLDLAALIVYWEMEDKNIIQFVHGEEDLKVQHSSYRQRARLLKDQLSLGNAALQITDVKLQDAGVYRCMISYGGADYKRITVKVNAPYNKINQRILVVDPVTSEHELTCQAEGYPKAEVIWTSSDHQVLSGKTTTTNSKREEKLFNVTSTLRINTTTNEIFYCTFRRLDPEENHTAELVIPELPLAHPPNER

IC50 [nM]	Structure (SMILES)
≤ 10	Cc1c(-c2nc3cc(CN4CC[C@@H](O)C4)cc(C#N)c3o2)cccc1-c1cccc(NC(=O)c2nc3c(n2C)CCN(CC24CC(C(=O)O)(C2)C4)C3)c1Cl [Example 262, (R)-3-((2-(2-chloro-3′-(7-cyano-5-((3-hydroxypyrrolidin-1-yl)methyl)benzo[d]oxazol-2-yl)-2′-methylbiphenyl-3-yl-carbamoyl)-1-methyl-6,7-dihydro-1H-imidazo[4,5-c]pyridin-5(4H)-yl)methyl)bicyclo[1.1.1]-pentane-1-carboxylic acid]
≤ 10	Cc1c(-c2nc3cc(CN4CC[C@@H](O)C4)cc(C#N)c3o2)cccc1-c1cccc(NC(=O)c2nc3c(n2C)CCN(C2CC(C)(C(=O)O)C2)C3)c1Cl (stereo partly drawn) [Example 263, (R)-3-(2-(2-chloro-3′-(7-cyano-5-((3-hydroxypyrrolidin-1-yl)-methyl)benzo[d]oxazol-2-yl)-2′-methylbiphenyl-3-ylcarbamoyl)-1-methyl-6,7-dihydro-1H-imidazo[4,5-c]pyridin-5(4H)-yl)-1-methylcyclobutanecarboxylic acid]
≤ 10	Cc1c(-c2nc3cc(CN4CC[C@@H](O)C4)cc(C#N)c3o2)cccc1-c1cccc(NC(=O)c2nc3c(n2C)CCN(C2CCCC(C(=O)O)CC2)C3)c1Cl (stereo partly drawn) [Example 264, 4-(2-(2-chloro-3′-(7-cyano-5-(((R)-3-hydroxypyrrolidin-1-yl)methyl)benzo[d]oxazol-2-yl)-2′-methylbiphenyl-3-ylcarbamoyl)-1-methyl-6,7-dihydro-1H-imidazo[4,5-c]pyridin-5(4H)-yl)cycloheptane carboxylic acid]
≤ 10	Cc1c(-c2nc3cc(CN4CC[C@@H](O)C4)cc(C#N)c3o2)cccc1-c1cccc(NC(=O)c2nc3c(n2C)CCN(CCC2CCC(C(=O)O)CC2)C3)c1Cl (stereo partly drawn) [Example 265, (R)-4-(2-(2-(2-chloro-3′-(7-cyano-5-((3-hydroxypyrrolidin-1-yl)methyl)benzo[d]oxazol-2-yl)-2′-methylbiphenyl-3-ylcarbamoyl)-1-methyl-6,7-dihydro-1H-imidazo[4,5-c]pyridin-5(4H)-yl)ethyl)cyclohexane carboxylic acid]
≤ 10	Cc1c(-c2nc3cc(CN4CC[C@@H](O)C4)cc(C#N)c3o2)cccc1-c1cccc(NC(=O)c2nc3c(n2C)CCN(C[C@H]2CC[C@@H](C(=O)O)CC2)C3)c1Cl [Example 266, cis-4-((2-(2-chloro-3′-(7-cyano-5-(((R)-3-hydroxypyrrolidin-1-yl)methyl)benzo[d]oxazol-2-yl)-2′-methylbiphenyl-3-ylcarbamoyl)-1-methyl-6,7-dihydro-1H-imidazo[4,5-c]pyridin-5(4H)-yl)methyl)cyclohexane carboxylic acid]
≤ 10	Cc1c(-c2nc3cc(CN4CC[C@@H](O)C4)cc(C#N)c3o2)cccc1-c1cccc(NC(=O)c2nc3c(n2C)CCN(CC24CCC(C(=O)O)(CC2)C4)C3)c1Cl [Example 267, (R)-4-((2-(2-chloro-3′-(7-cyano-5-((3-hydroxypyrrolidin-1-yl)methyl)benzo[d]oxazol-2-yl)-2′-methylbiphenyl-3-ylcarbamoyl)-1-methyl-6,7-dihydro-1H-imidazo[4,5-c]pyridin-5(4H)-yl)methyl)bicyclo[2.2.1]heptane-1-carboxylic acid]
≤ 10	Cc1c(-c2nc3cc(CN4CC5CC4CC5O)cc(C#N)c3o2)cccc1-c1cccc(NC(=O)c2nc3c(n2C)CCN(CC2CCC(C(=O)O)CC2)C3)c1Cl (stereo not drawn) [Example 270, trans-4-((2-(2-chloro-3′-(7-cyano-5-((5-hydroxy-2-azabicyclo[2.2.1]heptan-2-yl)methyl)benzo[d]oxazol-2-yl)-2′-methylbiphenyl-3-ylcarbamoyl)-1-methyl-6,7-dihydro-1H-imidazo[4,5-c]pyridin-5(4H)-yl)methyl)cyclohexanecarboxylic acid]
≤ 10	Cc1c(-c2nc3cc(CN4CCCC4)cc(C#N)c3o2)cccc1-c1cccc(NC(=O)c2nc3c(n2C)CCN(C[C@H]2CC[C@H](C(=O)O)CC2)C3)c1Cl [Example 271, trans-4-((2-(2-chloro-3′-(7-cyano-5-(pyrrolidin-1-ylmethyl)benzo[d]oxazol-2-yl)-2′-methylbiphenyl-3-ylcarbamoyl)-1-methyl-6,7-dihydro-1H-imidazo[4,5-c]pyridin-5(4H)-yl)methyl)cyclohexanecarboxylic acid]

More lines, now with the values behind:

Structure (SMILES)	IC50 [nM]
Cc1c(-c2nc3c(o2)CN(C(=O)CN(C)CCO)C3)cccc1-c1cccc(-c2nc3cc(CN4CC[C@@](C)(C(=O)O)C4)cc(C#N)c3o2)c1C [Example 252, (R)-1-((7-cyano-2-(3′-(5-(N-(2-hydroxyethyl)-N-methylglycyl)-5,6-dihydro-4H-pyrrolo[3,4-d]oxazol-2 yl)-2,2'-dimethyl-[1,1′-biphenyl]-3-yl)benzo[d]oxazol-5-yl)methyl)-3-methylpyrrolidine-3-carboxylic acid]	≤ 10
Cc1c(-c2nc3c(o2)CN(C(=O)CN2CCN(C)CC2)C3)cccc1-c1cccc(-c2nc3cc(CN4CC5CC4CC5C(=O)O)cc(C#N)c3o2)c1C (stereo not drawn) [Example 253, 2-((7-cyano-2-(2,2′-dimethyl-3,-(5-(2-(4-methylpiperazin-1-yl)acetyl)-5,6-dihydro-4H-pyrrolo[3,4-d]oxazol-2-yl)-[1,1′-biphenyl]-3-yl)benzo[d]oxazol-5-yl)methyl)-2-azabicyclo[2.2.1]heptane-5-carboxylic acid]	≤ 10
Cc1c(-c2nc3c(o2)CN(C(=O)CN2CCN(C)CC2)C3)cccc1-c1cccc(-c2nc3cc(CN4CC[C@@](C)(C(=O)O)C4)cc(C#N)c3o2)c1C [Example 254, (R)-1-((7-cyano-2-(2,2′-dimethyl-3′-(5-(2-(4-methylpiperazin-1-yl)acetyl)-5,6-dihydro-4H-pyrrolo[3,4-d]oxazol-2-yl)-[1,1′-biphenyl]-3-yl)benzo[d]oxazol-5-yl)methyl)-3-methylpyrrolidine-3-carboxylic acid]	≤ 10
Cc1c(-c2nc3c(o2)CN(C(=O)CN2CC4CC2CN4C)C3)cccc1-c1cccc(-c2nc3cc(CN4CC[C@@H](C(=O)O)C4)cc(C#N)c3o2)c1C (stereo partly drawn) [Example 255, (3R)-1-((7-cyano-2-(2,2′-dimethyl-3′-(5-(2-(5-methyl-2,5-diazabicyclo[2.2.1]heptan-2-yl)acetyl)-5,6-dihydro-4H-pyrrolo[3,4-d]oxazol-2-yl)biphenyl-3-yl)benzo[d]oxazol-5-yl)methyl)pyrrolidine-3-carboxylic acid]	≤ 10
Cc1c(-c2nc3cc(CN4CC[C@@H](C(=O)O)C4)cc(C#N)c3o2)cccc1-c1cccc(-c2nc3c(o2)CN(C(=O)CN2CC[C@@H](O)C2)C3)c1Cl [Example 256, (R)-1-((2-(2′-chloro-3′-(5-(2-((R)-3-hydroxypyrrolidin-1-yl)acetyl)-5,6-dihydro-4H-pyrrolo[3,4-d]oxazol-2-yl)-2-methyl-[1,1′-biphenyl]-3-yl)-7-cyanobenzo[d]oxazol-5-yl)methyl)pyrrolidine-3-carboxylic acid]	≤ 10
Cc1c(Nc2nccc3cc(CN[C@@H](C)CO)cnc23)cccc1-c1cccc(-c2nc3cc(CN4CC[C@@H](C(=O)O)C4)cc(C#N)c3o2)c1C [Example 257, (R)-1-((7-cyano-2-(3′-(3-(((S)-1-hydroxypropan-2-ylamino)methyl)-1,7-naphthyridin-8-ylamino)-2,2′-dimethylbiphenyl-3-yl)benzo[d]oxazol-5-yl)methyl)pyrrolidine-3-carboxylic acid]	≤ 10
Cc1c(Nc2nccc3cc(CN[C@H](C)CO)cnc23)cccc1-c1cccc(-c2nc3cc(CN4CC[C@@H](C(=O)O)C4)cc(C#N)c3o2)c1C [Example 258, (R)-1-((7-cyano-2-(3′-(3-(((R)-1-hydroxypropan-2-ylamino)methyl)-1,7-naphthyridin-8-ylamino)-2,2′-dimethylbiphenyl-3-yl)benzo[d]oxazol-5-yl)methyl)pyrrolidine-3-carboxylic acid]	≤ 10
Cc1c(NC(=O)c2nc3c(n2C)CCN(C)C3)cccc1-c1cccc(-c2nc3cc(CN4CCC(C(=O)O)CC4)cc(C#N)c3o2)c1C [Example 259, 1-((7-cyano-2-(3′-(1,5-dimethyl-4,5,6,7-tetrahydro-1H-imidazo[4,5-c]pyridine-2-carboxamido)-2,2′-dimethylbiphenyl-3-yl)benzo[d]oxazol-5-yl)methyl)piperidine-4-carboxylic acid]	≤ 10
Cc1c(NC(=O)c2nc3c(n2C)CCN(C)C3)cccc1-c1cccc(-c2nc3cc(CN4CC[C@@](C)(C(=O)O)C4)cc(C#N)c3o2)c1C [Example 260, (R)-1-((7-cyano-2-(3′-(1,5-dimethyl-4,5,6,7-tetrahydro-1H-imidazo[4,5-c]pyridine-2-carboxamido)-2,2′-dimethylbiphenyl-3-yl)benzo[d]oxazol-5-yl)methyl)-3-methylpyrrolidine-3-carboxylic acid]	≤ 10
Cc1c(-c2nc3cc(CN4CC[C@@H](O)C4)cc(C#N)c3o2)cccc1-c1cccc(NC(=O)c2nc3c(n2C)CCN(C[C@H]2CC[C@H](C(=O)O)CC2)C3)c1Cl [Example 261, trans-4-((2-(2-chloro-3′-(7-cyano-5-(((R)-3-hydroxypyrrolidin-1-yl)methyl)benzo[d]oxazol-2-yl)-2′-methylbiphenyl-3-ylcarbamoyl)-1-methyl-6,7-dihydro-1H-imidazo[4,5-c]pyridin-5 (4H)-yl)methyl)cyclohexanecarboxylic acid]	≤ 10
